From BindingDB's records for patent US20250313563 (The Broad Institute, 2025)
pIC50: −log10 of the molar value. “And” between values parts separate entries of the source, which are not always exact repeats. Equal entries are not always repeated.

Assays:
[1] = target: Glycogen synthase kinase-3 alpha (Homo sapiens, UniProt P49840); assay: TR-FRET Assay
Summary of the method: (§1)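 30 min preinc w/ cpd in assay buffer → kinase rxn → EDTA quench → add detection mix (40 nM SA-d2, 2 nM Tb-pSer641 Ab) → TR-FRET read.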

[2] = target: Glycogen synthase kinase-3 beta (Homo sapiens, UniProt P49841); assay: TR-FRET Assay
Summary of the method: as §1

Sequence of Glycogen synthase kinase-3 alpha (P49840 whole entry): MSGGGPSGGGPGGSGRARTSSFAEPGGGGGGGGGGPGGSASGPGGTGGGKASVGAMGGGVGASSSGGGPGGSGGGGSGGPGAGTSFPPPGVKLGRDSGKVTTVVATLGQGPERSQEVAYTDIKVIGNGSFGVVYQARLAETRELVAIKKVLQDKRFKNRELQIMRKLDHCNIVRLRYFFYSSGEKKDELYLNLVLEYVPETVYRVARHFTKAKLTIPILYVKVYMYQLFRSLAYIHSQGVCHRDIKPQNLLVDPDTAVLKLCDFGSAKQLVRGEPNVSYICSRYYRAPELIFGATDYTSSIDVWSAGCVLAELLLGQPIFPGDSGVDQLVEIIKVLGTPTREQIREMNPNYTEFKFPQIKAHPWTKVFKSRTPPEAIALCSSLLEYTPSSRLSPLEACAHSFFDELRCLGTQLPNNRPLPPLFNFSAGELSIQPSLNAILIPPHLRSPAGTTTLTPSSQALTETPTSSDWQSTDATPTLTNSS
Sequence of Glycogen synthase kinase-3 beta (P49841 whole entry): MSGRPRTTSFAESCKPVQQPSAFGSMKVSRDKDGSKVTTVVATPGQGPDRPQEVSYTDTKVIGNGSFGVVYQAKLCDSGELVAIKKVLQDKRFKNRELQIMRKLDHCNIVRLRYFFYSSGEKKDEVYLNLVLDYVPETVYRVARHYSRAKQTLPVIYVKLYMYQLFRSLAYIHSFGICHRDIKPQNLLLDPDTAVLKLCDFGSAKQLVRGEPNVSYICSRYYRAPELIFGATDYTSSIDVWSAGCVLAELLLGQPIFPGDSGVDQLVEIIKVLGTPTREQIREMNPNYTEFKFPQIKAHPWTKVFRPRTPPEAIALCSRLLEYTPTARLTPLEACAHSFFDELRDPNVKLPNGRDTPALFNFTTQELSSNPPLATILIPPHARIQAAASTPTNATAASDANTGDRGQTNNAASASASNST

pIC50 [1]	pIC50 [2]	Structure (SMILES)
> 7.00	6.00 to 7.00	CC1(C)CC(=O)C2=C(C1)NC1=C(CN=N1)C21CC(C(F)(F)F)C1 (stereo unspecified) [US20250313563, Compound 874527]
6.00 to 7.00	5.30 to 6.00	CCC1(c2cc(N3CCOCC3)ccc2F)C2=CN=NC2NC2=C1C(=O)CC(C)(C)C2 (stereo unspecified) [US20250313563, Compound 909203]
6.00 to 7.00	6.00 to 7.00	CC[C@]1(c2cccc(N3CCC3)c2)C2=CN=NC2NC2=C1C(=O)CC(C)(C)C2 (stereo partly specified) [US20250313563, Compound 889631]
> 7.00	> 7.00	CCC1(c2cccc(-c3ccncc3F)c2)C2=C(CC(C)(C)NC2=O)NC2N=NC(C(F)F)=C21 (stereo unspecified) [US20250313563, Compound 950320]
< 5.30	< 5.30	CC1(C)CC(=O)C2=C(C1)NC1=C(CN=N1)C21CCN(c2ccncc2)CC1 [US20250313563, Compound 880765]
> 7.00	> 7.00	CC[C@]1(c2cccc(-c3ccncc3)c2)C2=CN=NC2NC2=C1C(=O)C[C@@H](C)C2 (stereo partly specified) [US20250313563, Compound 874317]
> 7.00	> 7.00 and 6.00 to 7.00	CCC1(c2cccc(S(=O)(=O)c3ccccc3)c2)C2=CN=NC2NC2=C1C(=O)CC(C)(C)C2 (stereo unspecified) [US20250313563, Compound 913123]
> 7.00	> 7.00	CC[C@]1(c2cccc(N(C)c3ccnc(F)c3)c2)C2=CN=NC2NC2=C1C(=O)CC(C)(C)C2 (stereo partly specified) [US20250313563, Compound 929444]
5.30 to 6.00	< 5.30	CC[C@]1(c2cccc(-c3cc(OC)ncc3F)c2)C2=CN=NC2NC2=C1C(=O)CC(C)(C)C2 (stereo partly specified) [US20250313563, Compound 944035]
< 5.30	< 5.30	CC(C)(C)CC1N=NC2=C1[C@@](C)(c1cccc(S(=O)(=O)N3CCCC3)c1)C1=C(CC(C)(C)NC1=O)N2 (stereo partly specified) [US20250313563, Compound 108794]
> 7.00 and 6.00 to 7.00	> 7.00 and 5.30 to 6.00	CC[C@]1(c2cccc(-c3cnc(C)n3C)c2)C2=CN=NC2NC2=C1C(=O)CC(C)(C)C2 (stereo partly specified) [US20250313563, Compound 945613]
> 7.00	6.00 to 7.00	CCC1(c2cccc(C)c2)C2=CN=NC2NC2=C1C(=O)CC(C)(C)C2 (stereo unspecified) [US20250313563, Compound 785738]
> 7.00	> 7.00	CCC1(c2cccc(S(=O)(=O)CCOC)c2)C2=CN=NC2NC2=C1C(=O)CC(C)(C)C2 (stereo unspecified) [US20250313563, Compound 918271]
> 7.00	> 7.00	CC1(C)CC(=O)C2=C(C1)NC1=C(CN=N1)C21COC2(CN(C(=O)c3ccc(F)cc3)C2)C1 (stereo unspecified) [US20250313563, Compound 947292]
< 5.30	< 5.30	CC[C@]1(c2cccc(-c3ccnc4ccccc34)c2)C2=CN=NC2NC2=C1C(=O)CC(C)(C)C2 (stereo partly specified) [US20250313563, Compound 944034]
< 5.30	< 5.30	CC[C@@]1(c2cccc(-c3ccnc(C)c3)c2)C2=CN=NC2NC2=C1C(=O)C[C@@]1(CCOC1)C2 (stereo partly specified) [US20250313563, Compound 947411]
> 7.00	6.00 to 7.00	CC1(C)CC2=C(C(=O)C1F)[C@]1(CC[C@@H](C(F)(F)F)CC1)C1=CN=NC1N2 (stereo partly specified) [US20250313563, Compound 917134]
5.30 to 6.00	< 5.30	CC[C@]1(c2cccc(-c3cn(C)nc3C)c2)C2=C(CC(C)(C)NC2=O)NC2N=NC(F)=C21 (stereo partly specified) [US20250313563, Compound 949176]
> 7.00 and 6.00 to 7.00	> 7.00 and 6.00 to 7.00	Cc1ccc(CC(=O)N2CC3(C2)CC2(CO3)C3=C(N=NC3)NC3=C2C(=O)CC(C)(C)C3)cc1 (stereo unspecified) [US20250313563, Compound 947281]
> 7.00	6.00 to 7.00	C[C@@H]1C[C@H](C)C(=O)C2=C1NC1=C(CN=N1)C21CCOCC1 [US20250313563, Compound 893316]
5.30 to 6.00	< 5.30	CC[C@]1(c2cccc(-c3ccnc4c3CCCC4)c2)C2=CN=NC2NC2=C1C(=O)CC(C)(C)C2 (stereo partly specified) [US20250313563, Compound 944036]
> 7.00	> 7.00 and 6.00 to 7.00	CC1(C)CC(=O)C2=C(C1)NC1=C(CN=N1)C21CCN(S(=O)(=O)CC2CC2)CC1 [US20250313563, Compound 909207]
< 5.30	< 5.30	CC[C@@]1(c2cccc(-c3ccnc(O)c3)c2)C2=CN=NC2NC2=C1C(=O)CC(C)(C)C2 (stereo partly specified) [US20250313563, Compound 943993]
< 5.30	< 5.30	CC[C@@]1(c2cccc(C(F)(F)F)c2)C2=CN=NC2NC2=C1C(=O)N(c1ccccc1)CC2 (stereo partly specified) [US20250313563, Compound 929475]
6.00 to 7.00	5.30 to 6.00	CC(C)(C)CC(=O)N1CC2(C1)CC1(CO2)C2=C(N=NC2)NC2=C1C(=O)CC(C)(C)C2 (stereo unspecified) [US20250313563, Compound 947301]
> 7.00 and 6.00 to 7.00	> 7.00 and 5.30 to 6.00	CC[C@@]1(c2cccc(-c3ccncc3F)c2)C2=C(CC(C)(C)NC2=O)NC2N=NC(Cl)=C21 (stereo partly specified) [US20250313563, Compound 949757]
5.30 to 6.00	< 5.30	CC[C@@]1(c2cccc(C(F)(F)F)c2)C2=C(N=NC2)NC2=C1C(=O)N(Cc1ccccc1)C2 [US20250313563, Compound 929389]

pIC50 [1]	pIC50 [2]	Structure (SMILES)
> 7.00	6.00 to 7.00	CC1(C)CC(=O)C2=C(C1)NC1=C(CN=N1)C21CSC1 [US20250313563, Compound 889567]
< 5.30	< 5.30	CC[C@@]1(c2cccc(N(C)c3ccnc(OC)c3)c2)C2=CN=NC2NC2=C1C(=O)CC(C)(C)C2 (stereo partly specified) [US20250313563, Compound 932662]
> 7.00	6.00 to 7.00	CC[C@@]1(c2cccc(N(C)c3cc(C)ccn3)c2)C2=CN=NC2NC2=C1C(=O)CC(C)(C)C2 (stereo partly specified) [US20250313563, Compound 945609]
6.00 to 7.00 and > 7.00	> 7.00 and 6.00 to 7.00	CCC1(c2cccc(-c3ccnc(C(F)(F)F)c3)c2)C2=CN=NC2NC2=C1C(=O)CC(C)(C)C2 (stereo unspecified) [US20250313563, Compound 913350]
5.30 to 6.00	5.30 to 6.00	CC[C@@]1(c2cccc(N3CCOCC3)c2)C2=C(CC(C)(C)CC2=O)NC2N=NC(C(F)(F)F)=C21 (stereo partly specified) [US20250313563, Compound 816886]
> 7.00	> 7.00 and 6.00 to 7.00	CC1(C)CC(=O)C2=C(C1)NC1=C(CN=N1)[C@]21C[C@@H](c2ccncc2)C1 [US20250313563, Compound 889665]
6.00 to 7.00	6.00 to 7.00	CC[C@]1(c2cccc(-c3cnn(C)c3)c2)C2=CN=NC2NC2=C1C(=O)C[C@@H](C)C2 (stereo partly specified) [US20250313563, Compound 823721]
> 7.00	> 7.00	CC1(C)CC(=O)C2=C(C1)NC1=C(CN=N1)[C@@]21COC2(CN(S(C)(=O)=O)C2)C1 [US20250313563, Compound 913057]
6.00 to 7.00	6.00 to 7.00	CC[C@]1(c2cccc(C(C)C)c2)C2=CN=NC2NC2=C1C(=O)NC(C)(C)C2 (stereo partly specified) [US20250313563, Compound 949761]
> 7.00	6.00 to 7.00	CC[C@@]1(c2cccc(-c3ccnc(C(F)F)c3)c2)C2=CN=NC2NC2=C1C(=O)CC(C)(C)C2 (stereo partly specified) [US20250313563, Compound 943919]
> 7.00	6.00 to 7.00	CC[C@]1(c2cccc(C(F)(F)F)c2)C2=C(CC(C)(C)NC2=O)NC2N=NC(F)=C21 (stereo partly specified) [US20250313563, Compound 957518]
< 5.30	< 5.30	CC[C@]1(c2cccc(-c3ccnnc3)c2)C2=CN=NC2NC2=C1C(=O)CC(C)(C)C2 (stereo partly specified) [US20250313563, Compound 929443]
> 7.00	> 7.00	CCC1(c2cccc(N3CCOc4ccccc43)c2)C2=CN=NC2NC2=C1C(=O)CC(C)(C)C2 (stereo unspecified) [US20250313563, Compound 918280]
> 7.00	6.00 to 7.00	CCC1(c2cccc(C(F)(F)F)c2)C2=CN=NC2NC2=C1C(=O)N(c1cccc(C)c1)CC2 (stereo unspecified) [US20250313563, Compound 948052]
6.00 to 7.00	5.30 to 6.00	CC[C@]1(c2cccc(-c3cnn4c3CCCC4)c2)C2=C(CC(C)(C)NC2=O)NC2N=NC(C)=C21 (stereo partly specified) [US20250313563, Compound 947809]
> 7.00	> 7.00 and 6.00 to 7.00	CC1(C)CC(=O)C2=C(C1)NC1=C(CN=N1)C21CCN(S(=O)(=O)Cc2ccccc2)CC1 [US20250313563, Compound 929437]
> 7.00	6.00 to 7.00	O=C1CC2(CCC2)CC2=C1C1(CCOCC1)C1=C(N=NC1)N2 [US20250313563, Compound 909208]
> 7.00	6.00 to 7.00	CCC1(c2cccc(-c3ccnc(CCO)c3)c2)C2=CN=NC2NC2=C1C(=O)CC(C)(C)C2 (stereo unspecified) [US20250313563, Compound 945992]
> 7.00	6.00 to 7.00	Cc1ccc(C)c(C(=O)N2CC3(C2)CC2(CO3)C3=C(N=NC3)NC3=C2C(=O)CC(C)(C)C3)c1 (stereo unspecified) [US20250313563, Compound 947285]
< 5.30	< 5.30	CC[C@@]1(c2cccc(-c3ccnc(C(F)(F)F)c3)c2)C2=CN=NC2NC2=C1C(=O)CC(C)(C)C2 (stereo partly specified) [US20250313563, Compound 943989]
5.30 to 6.00	< 5.30	CC[C@]1(c2cccc(-c3ccnn3C)c2)C2=CN=NC2NC2=C1C(=O)NC1(CCS(=O)(=O)CC1)C2 (stereo partly specified) [US20250313563, Compound 949400]
> 7.00	> 7.00 and 6.00 to 7.00	CC1(C)CC(=O)C2=C(C1)NC1=C(CN=N1)[C@]21CCN(S(=O)(=O)c2ccccc2F)C1 [US20250313563, Compound 945718]
6.00 to 7.00	6.00 to 7.00	CCC1(c2cccc(Cc3ncccc3C(F)(F)F)c2)C2=CN=NC2NC2=C1C(=O)CC(C)(C)C2 (stereo unspecified) [US20250313563, Compound 947548]
> 7.00	6.00 to 7.00	Cn1ccc(S(=O)(=O)N2CCC[C@@]3(CC2)C2=CN=NC2NC2=C3C(=O)CC(C)(C)C2)n1 (stereo partly specified) [US20250313563, Compound 932660]
> 7.00	6.00 to 7.00	CCC1(c2cccc(OC)c2)C2=C(CC(C)(C)NC2=O)NC2N=NC(C)=C21 (stereo unspecified) [US20250313563, Compound 948763]
> 7.00	6.00 to 7.00	CC1(C)CC(=O)C2=C(C1)NC1=C(CN=N1)[C@]2(C)c1cc(C(F)(F)F)ccc1F [US20250313563, Compound 816798]
